This note sets out measurements from patent US9951064B2, “Azaindazole compounds as inhibitors of T790M containing EGFR mutants” (Genentech, Inc., priority 2013, dated 2018).

The target of one test is T1, EGFR T790M L858R (Homo sapiens, UniProt P00533, L858R/T790M).
T1 construct: purchased Life Technologies PV4879
In words: EGFR T790M L858R biochemical assay (Caliper mobility shift). Conditions: 5 μM ATP; apparent Ki (Morrison fit) converted by Cheng-Prusoff, Km of ATP 1.3 μM. Put shortly:
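Reactions run 30 minutes at room temperature (22 °C), stopped with 80 mM EDTA. Phosphorylated product and substrate separated electrophoretically and quantified by Caliper mobility shift.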

The target in another test is T2, EGFR del746-750 T790M (Homo sapiens, UniProt P00533, DEL746-750/T790M).
T2 construct: purchased Carna Biosciences 08-528
T2 sequence (P00533 with tags, fused parts or gaps DEL746-750/T790M limits assumed): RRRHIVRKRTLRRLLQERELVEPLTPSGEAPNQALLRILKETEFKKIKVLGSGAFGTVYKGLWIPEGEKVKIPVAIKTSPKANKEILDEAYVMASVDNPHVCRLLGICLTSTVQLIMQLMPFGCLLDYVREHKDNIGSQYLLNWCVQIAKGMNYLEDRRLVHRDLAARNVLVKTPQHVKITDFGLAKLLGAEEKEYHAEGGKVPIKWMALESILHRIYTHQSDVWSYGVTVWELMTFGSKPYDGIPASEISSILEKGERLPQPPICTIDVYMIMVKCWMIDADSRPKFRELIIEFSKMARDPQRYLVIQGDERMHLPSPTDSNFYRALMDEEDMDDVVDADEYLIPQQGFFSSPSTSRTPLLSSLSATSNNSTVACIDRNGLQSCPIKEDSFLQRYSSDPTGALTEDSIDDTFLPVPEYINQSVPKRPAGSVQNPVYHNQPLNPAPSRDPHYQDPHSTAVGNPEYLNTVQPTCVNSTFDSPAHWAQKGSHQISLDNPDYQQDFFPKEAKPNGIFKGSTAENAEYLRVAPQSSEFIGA
As to the kind of experiment: EGFR del746-750 T790M biochemical assay (Caliper mobility shift). To be noted: 5 μM ATP; apparent Ki (Morrison fit) converted by Cheng-Prusoff, Km of ATP 2.1 μM; read-out: EGFR(T790M/d746-750) Ki. The method, boiled down: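 Kinase reactions ran 30 min at room temperature (22 °C), then were stopped with 80 mM EDTA. Phosphorylated product and substrate were separated electrophoretically and quantified by Caliper mobility shift.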

Test [1] addresses T3, phosphor-EGFR in H1975(L585R/T790M) mutant EGFR expressing cells (Homo sapiens, UniProt P00533, L858R/T790M).
T3 construct: host or cells: NCI-H1975
As to the kind of experiment: H1975 pEGFR MSD cellular assay. Conditions: NCI-H1975 cells, serum starved, 1 hour compound incubation, pEGFR Tyr1068 MSD; read-out: HI975 pEGFR EC50. The test is classed as cell-based. Put shortly:
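NCI-H1975 cells, 30,000/well, serum-starved overnight, then treated 1 hour at 37° C with serially diluted compounds in serum-free medium (0.5% DMSO). Lysates captured on anti-phospho-EGFR plates overnight at 4° C, detected with SULFO-TAG anti-total EGFR by electrochemiluminescence. Inhibition vs untreated controls; EC50 from 4-parameter logistic fit.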

Test [2] deals with H1975 (EGFR T790M/L858R) cell proliferation. As to the kind of experiment: H1975 proliferation assay (Cell Titer-Glo). The test is classed as cell-based. Conditions: Homo sapiens, NCI-H1975, 72 h, NCI-H1975 cells, 72 hour incubation, read-out: H1975 antiproliferative EC50. As for the experimental part:
H1975 Proliferation Assays
All cell culture reagents were purchased from Invitrogen/Gibco. Cells are cultured at 37° C. at 5% CO2 and split as recommended by ATCC.
A general note: ATP-based viability assays read luminescence as a measure of living cells.

T1 sequence (P00533 25-1210 T790M/L858R): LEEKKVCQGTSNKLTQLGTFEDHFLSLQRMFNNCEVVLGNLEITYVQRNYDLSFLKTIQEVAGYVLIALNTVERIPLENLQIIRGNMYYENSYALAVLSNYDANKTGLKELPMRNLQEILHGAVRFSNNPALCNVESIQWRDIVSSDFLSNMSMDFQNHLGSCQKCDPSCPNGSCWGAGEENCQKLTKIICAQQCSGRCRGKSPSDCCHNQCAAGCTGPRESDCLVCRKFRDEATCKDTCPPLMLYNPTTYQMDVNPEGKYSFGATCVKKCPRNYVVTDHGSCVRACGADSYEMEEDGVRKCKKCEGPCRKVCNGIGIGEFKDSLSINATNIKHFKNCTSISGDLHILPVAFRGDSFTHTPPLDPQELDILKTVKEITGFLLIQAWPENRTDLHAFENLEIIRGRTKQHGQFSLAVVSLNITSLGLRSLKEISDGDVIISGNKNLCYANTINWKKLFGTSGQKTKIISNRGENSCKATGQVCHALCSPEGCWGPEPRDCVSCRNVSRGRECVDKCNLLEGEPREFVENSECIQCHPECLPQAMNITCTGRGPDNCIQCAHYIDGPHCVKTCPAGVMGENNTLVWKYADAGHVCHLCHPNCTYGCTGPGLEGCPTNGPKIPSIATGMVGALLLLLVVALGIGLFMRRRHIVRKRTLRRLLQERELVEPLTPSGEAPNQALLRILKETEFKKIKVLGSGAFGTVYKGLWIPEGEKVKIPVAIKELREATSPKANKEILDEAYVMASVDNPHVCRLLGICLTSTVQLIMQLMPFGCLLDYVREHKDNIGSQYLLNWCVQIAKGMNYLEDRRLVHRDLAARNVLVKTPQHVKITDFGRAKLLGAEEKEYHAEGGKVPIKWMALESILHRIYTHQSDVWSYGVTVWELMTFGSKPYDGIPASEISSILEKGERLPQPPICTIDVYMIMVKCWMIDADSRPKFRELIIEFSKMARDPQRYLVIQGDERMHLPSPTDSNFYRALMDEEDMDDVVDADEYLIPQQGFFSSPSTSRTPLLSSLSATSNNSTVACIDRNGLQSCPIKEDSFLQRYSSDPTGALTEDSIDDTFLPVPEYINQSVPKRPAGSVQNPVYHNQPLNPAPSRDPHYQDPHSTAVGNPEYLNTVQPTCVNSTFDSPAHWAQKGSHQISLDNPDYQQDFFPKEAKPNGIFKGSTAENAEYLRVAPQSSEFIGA
T3 sequence (P00533 25-1210 T790M/L858R): as above

For `C[C@@H](n1nc(N2CC[C@@H](O)C2)c2cnc(Nc3ccnc(N4CC[C@](C)(O)[C@H](F)C4)n3)cc21)C(F)(F)F` (racemic) [Example 140, (3RS,4SR)-3-Fluoro-1-(4-(3-((R)-3-hydroxypyrrolidin-1-yl)-1-((R*)-1,1,1-trifluoropropan-2-yl)-1H-pyrazolo[4,3-c]pyridin-6-ylamino)pyrimidin-2-yl)-4-methylpiperidin-4-ol], the Ki on EGFR T790M L858R was 3.1 nM; at EGFR del746-750 T790M, 6.1 nM. Moreover, the EC50 (commonly the concentration at which the effect is half-maximal) came to 288 nM in test [1] and 649 nM in test [2].

On to `CCC(C)n1nc(N2CC3(COC3)C2)c2cnc(Nc3ccnc(N4C[C@@H](F)[C@@H](O)C(C)(C)C4)n3)cc21` (mixture of isomers) [Example 147, (4SR,5RS)-1-(4-((1-(sec-Butyl)-3-(2-oxa-6-azaspiro[3.3]heptan-6-yl)-1H-pyrazolo[4,3-c]pyridin-6-yl)amino)pyrimidin-2-yl)-5-fluoro-3,3-dimethylpiperidin-4-ol], for which the Ki was 2.4 nM at EGFR T790M L858R and 3.9 nM at EGFR del746-750 T790M. In addition, the EC50 worked out at 15.8 nM in test [1] and 227 nM in test [2].

As to `CC(C)n1nc(N2CC[C@@H](O)C2)c2cnc(Nc3ccnc(N4C[C@@H](F)[C@@H](O)C(C)(C)C4)n3)cc21` (racemic) [Example 148, cis-5-Fluoro-1-(4-(3-((R)-3-hydroxypyrrolidin-1-yl)-1-isopropyl-1H-pyrazolo[4,3-c]pyridin-6-ylamino)pyrimidin-2-yl)-3,3-dimethylpiperidin-4-ol], the Ki was 1.8 nM at EGFR T790M L858R and 2.5 nM at EGFR del746-750 T790M. In addition, the EC50 stood at 22.3 nM in test [1] and 225 nM in test [2].

Consider `CC(C)n1nc(N2CC(O)CC2=O)c2cnc(Nc3ccnc(N4CC[C@H](O)[C@H](F)C4)n3)cc21` (mixture of isomers) [Example 173, (±)-1-(6-(2-(cis-3-Fluoro-4-hydroxypiperidin-1-yl)pyrimidin-4-ylamino)-1-isopropyl-1H-pyrazolo[4,3-c]pyridin-3-yl)-4-hydroxypyrrolidin-2-one], for which the figures for the Ki on EGFR T790M L858R and at EGFR del746-750 T790M were 2 nM and 4.8 nM, respectively. For the same molecule, the EC50 in test [1] is 1410 nM; in test [2], above 10000 nM.

`CC(C)n1nc(N2CC(F)(F)C2)c2cnc(Nc3ccnc(N4CC[C@H](O)[C@H](F)C4)n3)cc21` (racemic) [Example 174, (±)-cis-1-(4-(3-(3,3-Difluoroazetidin-1-yl)-1-isopropyl-1H-pyrazolo[4,3-c]pyridin-6-ylamino)pyrimidin-2-yl)-3-fluoropiperidin-4-ol]: the Ki came to 1.8 nM at EGFR T790M L858R and 3.8 nM at EGFR del746-750 T790M. Also, the EC50 in test [1] is 141 nM; in test [2], 801 nM.

For the molecule `CC(C)n1nc(N2CC3(CC(O)C3)C2)c2cnc(Nc3ccnc(N4CC[C@H](O)[C@H](F)C4)n3)cc21` (racemic) [Example 175, (±)-2-(6-((2-((cis)-3-Fluoro-4-hydroxypiperidin-1-yl)pyrimidin-4-yl)amino)-1-isopropyl-1H-pyrazolo[4,3-c]pyridin-3-yl)-2-azaspiro[3.3]heptan-6-ol], the Ki at EGFR T790M L858R stood at 1.4 nM; at EGFR del746-750 T790M, 2.6 nM. Moreover, the EC50 is 97.8 nM in test [1] and 766 nM in test [2].

Consider `CC(C)n1nc(NC(C)(C)C#N)c2cnc(Nc3ccnc(N4CC[C@H](O)[C@H](F)C4)n3)cc21` (racemic) [Example 183, (±)-2-(6-(2-(cis-3-Fluoro-4-hydroxypiperidin-1-yl)pyrimidin-4-ylamino)-1-isopropyl-1H-pyrazolo[4,3-c]pyridin-3-ylamino)-2-methylpropanenitrile], for which the Ki on EGFR T790M L858R was 34.7 nM; on EGFR del746-750 T790M, 76.7 nM. Also, the figures for the 50% effective concentration (EC50) in test [1] and in test [2] were 1650 nM and 8270 nM, respectively.

As to `CC[C@H](C)n1nc(N2CC3(COC3)C2)c2cnc(Nc3ccnc(N4CC[C@](C)(O)[C@H](F)C4)n3)cc21` (relative stereo) [Example 65, (3R*,4S*)-1-{4-[1-((S)-sec-Butyl)-3-(2-oxa-6-azaspiro[3.3]hept-6-yl)-1H-pyrazolo[4,3-c]pyridin-6-ylamino]pyrimidin-2-yl}-3-fluoro-4-methylpiperidin-4-ol], the results for the Ki on EGFR T790M L858R and at EGFR del746-750 T790M were 3.6 nM and 9.6 nM, respectively. In addition, the EC50 in test [1] was 126 nM; in test [2] it was 874 nM.

Consider `CC[C@H](C)n1nc(N2CC[C@@H](O)C2)c2cnc(Nc3ccnc(N4CC[C@](C)(O)[C@H](F)C4)n3)cc21` (relative stereo) [Example 69, (3R*,4S*)-1-{4-[1-((S)-sec-Butyl)-3-((R)-3-hydroxypyrrolidin-1-yl)-1H-pyrazolo[4,3-c]pyridin-6-ylamino]pyrimidin-2-yl}-3-fluoro-4-methylpiperidin-4-ol], for which the Ki on EGFR T790M L858R stood at 1.7 nM; on EGFR del746-750 T790M it was 2.9 nM. Besides, the EC50 in test [1] is 67.9 nM; in test [2], 521 nM.

`CC[C@H](C)n1nc(N2CC[C@H](O)C2)c2cnc(Nc3ccnc(N4CC[C@](C)(O)[C@H](F)C4)n3)cc21` (relative stereo) [Example 70, (3R*,4S*)-1-{4-[1-((S)-sec-Butyl)-3-((S)-3-hydroxypyrrolidin-1-yl)-1H-pyrazolo[4,3-c]pyridin-6-ylamino]pyrimidin-2-yl}-3-fluoro-4-methylpiperidin-4-ol]: the Ki at EGFR T790M L858R was found to be 2 nM; at EGFR del746-750 T790M, 2.3 nM. Further, the EC50 in test [1] was 83 nM; in test [2], 371 nM.

As for `CC(n1nc(N2CC[C@@H](O)C2)c2cnc(Nc3ccnc(N4CC[C@](C)(O)[C@H](F)C4)n3)cc21)C(F)(F)F` (relative stereo) [Example 79, (3RS,4SR)-3-Fluoro-1-(4-(3-((R)-3-hydroxypyrrolidin-1-yl)-1-((S*)-1,1,1-trifluoropropan-2-yl)-1H-pyrazolo[4,3-c]pyridin-6-ylamino)pyrimidin-2-yl)-4-methylpiperidin-4-ol], the Ki was 3.3 nM at EGFR T790M L858R and 5.9 nM at EGFR del746-750 T790M. For the same molecule, the EC50 in test [1] was found to be 165 nM; in test [2], 906 nM.

Regarding `CC(C)n1nc(N2CCC(C)(O)C2)c2cnc(Nc3ccnc(N4CC[C@@H](O)[C@@H](F)C4)n3)cc21` (relative stereo) [Example 104, (3S*,4R*)-3-fluoro-1-(4-((3-(3-hydroxy-3-methylpyrrolidin-1-yl)-1-isopropyl-1H-pyrazolo[4,3-c]pyridin-6-yl)amino)pyrimidin-2-yl)piperidin-4-ol], the Ki was 1.6 nM on EGFR T790M L858R and 1.9 nM on EGFR del746-750 T790M. Further, the EC50 in test [1] came out at 71.6 nM; in test [2], 404 nM.

`CC1CN(c2nn(C(C)C)c3cc(Nc4ccnc(N5CC[C@H](O)[C@H](F)C5)n4)ncc23)C(=O)N1` (relative stereo) [Example 127, 1-(6-(2-(cis-3-Fluoro-4-hydroxypiperidin-1-yl)pyrimidin-4-ylamino)-1-isopropyl-1H-pyrazolo[4,3-c]pyridin-3-yl)-4-methylimidazolidin-2-one]: the Ki on EGFR T790M L858R came to 2.5 nM; at EGFR del746-750 T790M it was 6 nM. For the same molecule, the EC50 in test [1] was 466 nM; in test [2], 1380 nM.

With `CC1CNC(=O)N1c1nn(C(C)C)c2cc(Nc3ccnc(N4CC[C@H](O)[C@H](F)C4)n3)ncc12` (relative stereo) [Example 128, 1-(6-(2-(cis-3-Fluoro-4-hydroxypiperidin-1-yl)pyrimidin-4-ylamino)-1-isopropyl-1H-pyrazolo[4,3-c]pyridin-3-yl)-5-methylimidazolidin-2-one], the Ki at EGFR T790M L858R was 6.2 nM; on EGFR del746-750 T790M, 15.5 nM. Also, the figures for the EC50 in test [1] and in test [2] were 919 nM and 2040 nM, respectively.
